In patent US11459307B2, “Heterocyclic compounds for the inhibition of PASK” (BioEnergenix LLC, priority 2009, dated 2022):

How the values were obtained:
[1] = tested on: high fat diet fed C57Bl6 mice; test: Mouse High Fat Dietary Model with fast/re-feed; format: in vivo; details: for reduced body weight vs Vehicle: fast/re-feed
Procedure: A standard model of human hyperlipidemia and insulin resistance is the mouse fed a high fat diet for several weeks (31, 33). Additionally, since hepatic lipid synthesis is known to be regulated by food consumption, the fast/re-feed cycle of Horton et al. (32) was incorporated into the chronic high fat diet model. The compound was evaluated in this model as an agent to restore insulin sensitivity and lower blood lipids. The chronic high fat diet was fed to mice to simulate a standard Western diet which is elevated in calories from high fat and carbohydrate intake. This and similar models of dietary induced obesity, insulin insensitivity and elevated serum lipids and cholesterol are used as mouse and rat models of human pathology including hyperlipidemia, type II diabetes, atherosclerosis, obesity, cardiovascular and liver disease. These models have been used as excellent predictors of efficacy in human clinical trials (PPAR and FXR agonists).
The farnesoid X receptor (FXR) is a ligand-activated transcription factor and a member of the nuclear receptor superfamily. […] While the mechanism of action of FXR agonists is clearly distinct from PASK inhibition, WAY-362450 has been used as a positive control compound producing physiologically beneficial changes in glucose and lipid metabolism resembling inhibition of PASK. Throughout these in vivo assays, WAY-362450 has been used as a control compound, and will be referred to as such.
Male C57Bl6 mice were obtained from Jackson Laboratories and had been fed a high fat diet (60% kcal fat) for eight weeks. The mice were fed an identical high fat diet (Research Diet D12492) upon arrival and during the study. All mice were treated with the subject compound at 30 or 100 mg/kg, control compound (WAY-362450) at 30 mg/kg or vehicle by oral gavage daily for three days. On the final day, 10 animals from each group began an 24 hour fast and then were sacrificed (fasted groups 1a,2a,3a,4a). Alternatively, 10 animals from each group underwent a 24 hour fast followed by a 12 hour re-feed period with the same high fat diet ad libitum and then were sacrificed (re-fed groups 1b,2b,3b,4b).
Body weights were monitored at the start and end of the protocol. After completing the fast or fast/re-feed conditions, the mice were given avertin for anesthesia by intraperitoneal administration. Whole blood was collected by cardiac puncture and the mice were terminated by cervical dislocation. Livers were collected surgically, weighed and immediately frozen in liquid nitrogen. The blood was placed in Li-heparin treated tubes, centrifuged to collect plasma and the plasma frozen.
The plasma was analyzed by standard colorimetric assays for glucose, insulin, triglycerides and cholesterol. Frozen liver samples were pulverized and extracted in ethanolic KOH and analyzed for liver triglycerides and cholesterol.

[2] = tested on: high fructose diet fed Sprague Dawley rats; test: Rat High Fructose Model with Fast/Re-Feed; format: in vivo
Procedure: Another standard model of human hyperlipidemia and insulin resistance is the rat fed a high fructose diet for several weeks (33). Additionally, since hepatic lipid synthesis is known to be regulated by food consumption, the fast/reefed cycle of Horton et al. (32) was incorporated into the chronic high fructose diet model. A compound disclosed above was evaluated in this model as an agent to restore insulin sensitivity and lower blood lipids.
Eight week old male Sprague Dawley rats were purchased from Harlan, Inc. The rats weighed 200-225 g upon arrival and were divided into groups as detailed in Table 2 and were immediately placed on a high fructose diet (60% kcal fructose; Open Source Diet #D00111301) ad libitum for three weeks. During the last week of feeding the high fructose diet, the rats were dosed with vehicle (5% solutol, 8% β cyclo-dextrin), subject compound at 30 mg/kg or 100 mg/kg or the control compound at 30 mg/kg by oral gavage once daily for 7 days. On the final day, all animals were placed on a […] followed by a 12 hour re-feed period on the high fructose diet ad libitum. Body weights were monitored throughout the protocol. After completing the fast or fast/re-feed conditions, the rats were given avertin for anesthesia by intraperitoneal administration. Whole blood was collected by cardiac puncture and the rats were terminated by cervical dislocation. Livers were collected surgically, weighed and immediately frozen in liquid nitrogen. The blood was placed in Li-heparin treated tubes, centrifuged to collect plasma and the plasma frozen.
The plasma was analyzed by standard colorimetric assays for glucose, insulin, triglycerides and cholesterol.

[3] = 30 mg/kg oral once daily for 7 days
[4] = fast and re-feed, 30 mg/kg for 7 days
[5] = 100 mg/kg oral once daily for 7 days
[6] = fast and re-feed, 100 mg/kg for 7 days

CC(C)OC(=O)C1=CN(C(=O)c2ccc(F)c(F)c2)CC(C)(C)c2c1[nH]c1ccccc21 [control compound, WAY-362450, reference compound]
effects on liver weight ([1]; 30 mg/kg oral daily for three days): identical to those of the subject compound at the same dose
body weight relative to the Vehicle group (FIG. 1) [2, 3]: significant increase in body weight
increase in liver weight [2, 3]: about 2 g
increased liver weights [2, 3]: about 15%
effect on plasma glucose concentrations [2, 4]: did not alter plasma glucose concentrations

CC(C)N(C)c1nc2cc(C(=O)O)ccc2nc1-c1ccc(F)cc1 [subject compound]
reductions in liver weights ([1]; 30 and 100 mg/kg oral daily for three days): 7-9%
decreased plasma glucose vs vehicle ([1]; fast and re-feed, 100 mg/kg (highest dose)): up to 21%
reduced body weight vs Vehicle ([1]; 30 mg/kg oral gavage daily for three days): 2.7%
reduced body weight vs Vehicle ([1]; 100 mg/kg oral gavage daily for three days): 5.1%
decreased plasma insulin vs vehicle ([1]; fasted and re-fed, 30 mg/kg): 10%
decreased plasma insulin vs vehicle ([1]; fasted and re-fed, 100 mg/kg): 28%
decreased plasma glucose vs vehicle ([1]; fasted only, 30 mg/kg): 30%
decreased body weight vs Vehicle Fasted ([1]; fasted only, 30 mg/kg oral daily for three days): 1.8%
decreased plasma glucose vs vehicle ([1]; fasted only, 100 mg/kg): 43%
decreased body weight vs Vehicle Fasted ([1]; fasted only, 100 mg/kg oral daily for three days): 5.1%
decreased plasma insulin vs vehicle ([1]; fasted only, 30 and 100 mg/kg): up to 26%
body weight relative to the Vehicle group (FIG. 1) [2, 3]: modest increase in body weight
body weight relative to the Vehicle group (FIG. 1) [2, 5]: modest decrease in body weight
maximal reduction in liver weight [2, 5]: about 4%
decrease in plasma glucose vs vehicle [2, 4]: 21.5%
insulin levels reduced vs vehicle [2, 4]: 15.4%
plasma cholesterol decreased vs vehicle [2, 4]: 5.7%
decrease in plasma glucose vs vehicle [2, 6]: 26.3%
insulin levels reduced vs vehicle [2, 6]: 31.4%
plasma cholesterol decreased vs vehicle [2, 6]: 10%
